Series [1] addresses AChE of electroforus electricus (electric eel) (Electrophorus electricus, UniProt O42275). The series is described as follows: biochemical. The note with it: eeAChEi IC50, AChE from electric eel; mean of three independent experiments ± SEM. The protocol:
All new racemic compounds were tested as acetylcholinesterase inhibitors via an in vitro assay, following a modification of Ellman’s method in three independent experiments, using tacrine as a reference compound. […] Enzyme inhibition assays were performed using an adaptation of Ellman’s method. The readings were made in a spectrophotometer Perkin-Elmer Lambda 35 UV-Vis. Enzyme activity is measured by following the increase in yellow color produced from thiocholine when it reacts with dithiobisnitrobenzoate ion (DTNB). DTNB solution was obtained dissolving the reagent in HEPES buffer with salts, namely NaCl (50 mM) and MgCl2 (20 mM), obtaining a 3 mM solution. The enzyme AChE of electroforus electricus (electric eel) stock (500 U) was dissolved in TRIS 50 mM, pH 8.0, being posteriorly diluted to assay concentrations (5 U), obtaining an aliquot of 1 mL. The enzyme substrate used was acetylthiocholine iodide (AThCh, 16 mM), which was prepared with deionized water. The compounds tested were diluted in MeOH or DMSO (1 mg/mL, 2–7 × 10^−3 M), with further dilution, and five different concentrations were used for each compound, obtaining different percentages of AChE inhibition. The assay consists in the addition of HEPES (50 mM, pH = 8), inhibitor, AChE and MeOH in a 1 mL cuvette. The mixture was left to incubate for 15 min and, after that, AThCh and DTNB were added. The enzymatic reaction was followed through the measurements of absorbencies at 405 nm (Perkin Elmer Lambda 35 spectrophotometer equipped with a temperature programmer PTP 1þ1 Peltier System, using thermostated (T = 25.0 ± 0.1 °C) 1 cm path length cells) during 5 min. A blank solution containing all the components except the enzyme, that was substituted for equal volume of HEPES, was used. A control reaction was used using MeOH instead of the new compounds and was considered the reaction corresponding to 100% enzymatic activity. Each assay was performed in quintupled.

Series [2] concerns the target T1, Aβ1-42 (Homo sapiens, UniProt P05067).
T1 construct: Amyloid β peptide (Aβ1-42) was purchased from GeneCust as a lyophilised powder; purchased GeneCust
Description: biochemical. The note with it: Aβ1-42; inhibitor 40 µM; SEM < 10%; read-out: Inhib. Aβ Aggreg. Self-Induced. The protocol: The anti-amyloidogenic activity of all the compounds was also evaluated in vitro, in the absence and in presence of Cu(II), by measuring the fluorescence emission of Thioflavin T (ThT).
The spectrofluorimetric method, based on the fluorescence emission of thioflavin T (ThT), was used to study the Aβ1-42 aggregation inhibition. Firstly, Aβ1-42 was dissolved in HFIP (1,1,1,3,3,3-Hexafluoro-2-propanol) and kept overnight at room temperature in order to obtain a dry film. […] The ligand solutions were prepared with MeOH (1mg/mL) and further with phosphate buffer. […] As a control, a solution of 30 μL of phosphate buffer and 30 μL of Aβ1-42 was used to observe the aggregation without any inhibition, while the ligand assay solutions were composed of 20 μL of phosphate buffer, 30 μL of Aβ1-42 and 10 μL of ligand. The Cu-induced aggregation studies were similarly conducted, adding 10 μL of CuCl2 to induce the fibril aggregation. Each experiment was composed of an assay and a blank sample, where the blank sample lacks Aβ1-42, to monitor the effect of the compounds on the fluorescence emission. The samples were left to incubate in a CERTOMAT WR water bath for 24 h at 37 °C with shaking. After 24 h, a Glycine-NaOH buffer (pH = 8.5) containing ThT were added to each sample in a microplate. The fluorescence signal was monitored at 446 nm (λexc) and 486 nm (λem) with a Varian Cary Eclipse fluorimeter. Amyloid β peptide (Aβ1-42) was purchased from GeneCust as a lyophilised powder and stored at −20 °C [12, 13, 14].

Series [3] concerns the target T1, Aβ1-42. Description: Inhibition of Cu2+-induced Aβ1-42 aggregation, thioflavin T fluorescence. The format is biochemical. The note with it: inhibitor 40 µM, copper 40 µM. Here is the method:
The anti-amyloidogenic activity of all the compounds was also evaluated in vitro, in the absence and in presence of Cu(II), by measuring the fluorescence emission of Thioflavin T (ThT). […] The Aβ self-aggregation inhibitory activity shown by all compounds is higher than that of parent compound TA, with the exception of compound 2 (probably due to solubility issues at the experimental conditions of the assays). The fact that the reference value previously reported by us for TA (50 ± 8%) was obtained for quite different conditions, including a much higher inhibitor concentration (100 μM instead of 40 μM) is noteworthy. […] This may be due to different electronic contributions between the ketone and the ester functions. Therefore, the ester derivatives seem to be better chelators compared to TA.
The spectrofluorimetric method, based on the fluorescence emission of thioflavin T (ThT), was used to study the Aβ1-42 aggregation inhibition. Firstly, Aβ1-42 was dissolved in HFIP (1,1,1,3,3,3-Hexafluoro-2-propanol) and kept overnight at room temperature in order to obtain a dry film. Then, the film was re-dissolved in CH3CN-Na2CO3 (300μM)/NaOH (250μM) (48.3/48.3/3.4 mL v/v/v) and then phosphate buffer (pH = 8) was added. The ligand solutions were prepared with MeOH (1mg/mL) and further with phosphate buffer. For the inhibition studies of copper-induced Aβ aggregation, a solution of CuCl2 240 μM was used. As a control, a solution of 30 μL of phosphate buffer and 30 μL of Aβ1-42 was used to observe the aggregation without any inhibition, while the ligand assay solutions were composed of 20 μL of phosphate buffer, 30 μL of Aβ1-42 and 10 μL of ligand. The Cu-induced aggregation studies were similarly conducted, adding 10 μL of CuCl2 to induce the fibril aggregation. Each experiment was composed of an assay and a blank sample, where the blank sample lacks Aβ1-42, to monitor the effect of the compounds on the fluorescence emission. The samples were left to incubate in a CERTOMAT WR water bath for 24 h at 37 °C with shaking. After 24 h, a Glycine-NaOH buffer (pH = 8.5) containing ThT were added to each sample in a microplate. The fluorescence signal was monitored at 446 nm (λexc) and 486 nm (λem) with a Varian Cary Eclipse fluorimeter. Amyloid β peptide (Aβ1-42) was purchased from GeneCust as a lyophilised powder and stored at −20 °C [12, 13, 14].

Details of series [4]: method as in PMID 30158491. The note with it: DPPH assay; cited from earlier work. In general terms: The DPPH test is a chemical assay of radical scavenging.
The target of series [5] is T1, Aβ1-42. Details: method as in PMID 30158491. As to conditions: Cinhibitor = 100 µM; cited from earlier work.
On the set-up of series [6]: method as in literature. The note with it: value reported in the literature; ref literature; cited from earlier work.

The values that follow come from publication PMC7830597, “Derivatives of Tenuazonic Acid as Potential New Multi-Target Anti-Alzheimer’s Disease Agents” (Biomolecules, 2021).

T1 sequence (P05067 672-713 limits assumed): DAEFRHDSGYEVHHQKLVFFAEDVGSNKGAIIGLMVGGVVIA
AChE of electroforus electricus (electric eel), sequence (O42275 24-633): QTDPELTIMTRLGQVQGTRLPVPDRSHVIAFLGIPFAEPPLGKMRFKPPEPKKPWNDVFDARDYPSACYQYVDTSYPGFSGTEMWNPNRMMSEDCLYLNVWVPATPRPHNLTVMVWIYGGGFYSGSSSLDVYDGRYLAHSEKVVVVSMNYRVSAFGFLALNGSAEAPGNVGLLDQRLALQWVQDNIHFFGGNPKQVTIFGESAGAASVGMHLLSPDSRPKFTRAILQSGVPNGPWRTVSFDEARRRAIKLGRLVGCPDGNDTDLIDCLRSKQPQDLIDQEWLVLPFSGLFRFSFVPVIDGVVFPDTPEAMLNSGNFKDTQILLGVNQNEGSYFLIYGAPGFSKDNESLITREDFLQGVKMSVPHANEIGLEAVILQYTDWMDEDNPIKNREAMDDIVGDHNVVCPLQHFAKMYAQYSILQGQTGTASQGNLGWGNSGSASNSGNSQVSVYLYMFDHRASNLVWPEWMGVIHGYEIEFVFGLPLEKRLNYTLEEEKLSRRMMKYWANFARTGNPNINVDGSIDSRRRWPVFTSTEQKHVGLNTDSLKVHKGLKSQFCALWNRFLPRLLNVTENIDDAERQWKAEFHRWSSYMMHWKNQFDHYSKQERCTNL

In series [1], `CC[C@H](C)[C@@H]1NC(=O)C(C(C)=O)=C1O` (stereo in doubt) [Tenuazonic acid] registered an IC50 of 65 ± 4 µM. Besides, on Aβ1-42 [2], the inhibition at 40 µM was found to be 25.2%. The “Inhib. Aβ Aggreg. Cu2+-Induced” value on Aβ1-42 [3] is recorded as “did not demonstrate a significant difference of effect”. The “Antioxidant Activity EC50” value in series [4] was “- 2.6 ± 0.2 [19] µmol/µmol of DPPH”. In addition, the “Inhib. Aβ Aggreg. Self-Induced” value on Aβ1-42 [5] was 50 ± 8%. Besides, the “log K (protonation constant)” value in series [6] is 3.523.

In general, IC50 refers to the concentration that gives 50% inhibition.
